The text below walks through data of PubChem BioAssay (NCI).

Test systems include MALME-3M melanoma; SN12C renal; SK-OV-3 ovarian; HOP-62 NSCLC; OVCAR-5 ovarian; PC-3 prostate; MDA-MB-435; K-562 leukemia; NCI/ADR-RES ovarian; SF-539 CNS.
What all share (experiment): growth of human tumour cells (NCI), 48 h

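Values below derive from 48-hour exposures of cells grown in 96-well plates, with endpoints linearly interpolated between the two concentrations bracketing the appropriate inhibition level. TGI: concentration producing complete growth inhibition.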 Bounds are passed on as bounds.

Consider `Cc1c2cc[n+](C)c(C)c2cc2c1[nH]c1ccccc12`, for which the TGI with MALME-3M melanoma is 14.2 µM; in the experiment with SN12C renal, 8.54 µM; in the experiment on SK-OV-3 ovarian, 89.2 µM; with HOP-62 NSCLC it was 37.5 µM; with OVCAR-5 ovarian, 82.6 µM; in the experiment with PC-3 prostate, over 100 µM. The TGI in the experiment on MDA-MB-435 was over 75.2 µM; in the experiment with K-562 leukemia, 61.3 µM; in the experiment with NCI/ADR-RES ovarian, over 93.4 µM; in the experiment on SF-539 CNS, 46.2 µM.
